From patent US20250152577A1, “Pharmaceutical Composition of Ethidium Bromide and Use in Treating Cancer” (RUIJIN HOSPITAL, SHANGHAI JIAOTONG UNIVERSITY SCHOOL OF …, priority 2022, published 2025)

Experiments:
B16 Melanoma = assay: Median lethal dosage (IC50) against tumor cell lines; type: cell-based; conditions: Mus musculus; B16 melanoma tumor cells
GES1 = assay: Median lethal dosage (IC50) against normal cell lines; type: cell-based; conditions: Homo sapiens; GES1 normal cells
[1] = system: colorectal cancer cells RKO; assay: Intraperitoneal injection of colorectal cancer cells RKO in nude mice, intravenous administration; type: in vivo
Excerpt: In order to further investigate whether ethidium bromide also has a better inhibitory effect on other types of tumors, we administered nude mice 2 weeks after the intraperitoneal injection of 2×10^6 colorectal cancer cells RKO, and then tested the anti-tumor effect of ethidium bromide after 4 weeks of intravenous administration, as described above.

[2] = system: colorectal cancer cells RKO; assay: Intraperitoneal RKO in nude mice, intraperitoneal administration; type: in vivo; conditions: intraperitoneal 10 mg/Kg once daily until day 5
Method: In addition, we also tested for nude mice utilizing intraperitoneal administration, where 2×10^6 colorectal cancer cells, RKO, were first injected intraperitoneally in nude mice, and about 3 days later, we treated the nude mice using intraperitoneal administration (10 mg/Kg).

PANC1 Pancreatic cancer = assay: Median lethal dosage (IC50) against tumor cell lines; type: cell-based; conditions: Homo sapiens, PANC-1; PANC1 pancreatic cancer tumor cells
3T3-L1 = assay: Median lethal dosage (IC50) against normal cell lines; type: cell-based; conditions: Mus musculus; 3T3-L1 normal cells
Reh Leukemia = assay: Median lethal dosage (IC50) against tumor cell lines; type: cell-based; conditions: Reh leukemia tumor cells
[3] = Tolerability of gavage oral administration in mice; type: in vivo; conditions: gavage oral 20 mg/Kg per day
[4] = system: mTOR, p-NFkB, p-Erk, cleaved Caspase3; assay: Signaling molecules in cells by Western blotting; type: cell-based
Method: We investigated the mechanism of ethidium bromide-induced apoptosis in tumor cells. First, tumor tissues treated with ethidium bromide (mice shown in FIGS. 7 and 8, treated for 4 weeks at 20 mg/Kg per day) were subjected to SDS-Loading buffer boiling lysis and tested for associated signaling pathways by Western blotting.
In order to further determine how ethidium bromide activates phosphorylation of Erk and Caspase3 cleavage and induces apoptosis, we also tested with different cell lines treated with ethidium bromide for 10 min, 30 min, 1, 2, and 6 h.

RKO Colorectal cancer = assay: Median lethal dosage (IC50) against tumor cell lines; type: cell-based; conditions: Homo sapiens; RKO colorectal cancer tumor cells
[5] = system: pancreatic cancer cells Panel; assay: Mitochondrial function by Seahorse; type: cell-based, human; conditions: Seahorse after 6 hours; concentration-dependent
Method: (§1) To further verify the effect of ethidium bromide on mitochondrial function, various cell lines were treated with ethidium bromide and mitochondrial function was tested by using Seahorse after 6 hours.

[6] = system: colorectal cancer cells RKO; assay: Mitochondrial function by Seahorse; type: cell-based, human; conditions: Seahorse after 6 hours; concentration-dependent
Method: as §1

tumor cells = assay: Median lethal dosage, summary over tumor cells; type: cell-based; conditions: vast majority of the tumor cells of Table 1; read-out: median lethal dosages against tumor cells
Hela Cervical cancer = assay: Median lethal dosage (IC50) against tumor cell lines; type: cell-based; conditions: Homo sapiens; Hela cervical cancer tumor cells
C2C12 = assay: Median lethal dosage (IC50) against normal cell lines; type: cell-based; conditions: Mus musculus; C2C12 normal cells
AGS Gastric cancer = assay: Median lethal dosage (IC50) against tumor cell lines; type: cell-based; conditions: AGS gastric cancer tumor cells
[7] = cited from earlier work
HepG2 Liver cancer = assay: Median lethal dosage (IC50) against tumor cell lines; type: cell-based; conditions: Homo sapiens; HepG2 liver cancer tumor cells
[8] = system: pancreatic cancer cells Panel; assay: Ectopic lung metastasis after intravenous injection of pancreatic cancer cells in nude mice; type: in vivo; conditions: intravenous 5 mg/Kg per day, start about 3 weeks after cell injection, 4 weeks
Method: In addition, to further investigate the effect of ethidium bromide on ectopic tissue metastatic tumors, we injected 2×10^6 pancreatic cancer cells Panel intravenously into nude mice. After ectopic tissue metastasis, tumors formed primarily in the lungs. After approximately 3 weeks, intravenous administration of 5 mg/Kg ethidium bromide per day was started after the tumor had already grown in the lung tissue (FIG. 15A). The mice were sacrificed after 4 weeks of administration and the lungs were removed for test.

[9] = system: pancreatic tumor cells Panc1; assay: Scratch assay of cultured cells (migration); type: cell-based, human
Excerpt: (§2) Ectopic metastasis of tumors is the biggest challenge in tumor treatment.

[10] = system: colorectal cancer cells RKO; assay: Scratch assay of cultured cells (migration); type: cell-based, human
Excerpt: as §2

LO2 = assay: Median lethal dosage (IC50) against normal cell lines; type: cell-based; conditions: Homo sapiens, L02; LO2 normal cells
normal cell line GES1 = assay: Mitochondrial function by Seahorse; type: cell-based; conditions: Seahorse after 6 hours
Method: as §1

normal cells = assay: Cell death/apoptosis (PI Sub-G1 flow cytometry, MTT, Annexin V); type: cell-based; conditions: 48 h
Method: (§3) Ethidium bromide was purchased from Sigma (E7637) and treated as follows. Cancer and normal cells of various tissue origins with approximately 40% growth abundance were treated with 0.1, 0.4, and 1 μg/ml for 48 h, followed by PI staining and cycle detection by flow cytometry, statistical analysis of genomic DNA break (Sub-G1) cells, or cell viability by MTT method.
(§4) In support of this, cancer cells and normal cells from various tissues with growth abundance of about 40% were treated with 1, 2, and 5 μM for 48 h, respectively, and then observed the growth of the cells by light microscopy, followed by PI staining, detection and statistical analysis of genomic DNA break (Sub-G1) cells by flow cytometry (FIG. 3), or cell apoptosis detection by Annexin V staining method (FIG. 4).

cancer cells = assay: as above; type: cell-based; conditions: 48 h
Method: as §3, §4

MDA-231 Breast cancer = assay: Median lethal dosage (IC50) against tumor cell lines; type: cell-based; conditions: Homo sapiens, MDA-MB-231; MDA-231 breast cancer tumor cells
[11] = intravenous, start 2 weeks after cell injection, 4 weeks
[12] = cell lines treated 10 min, 30 min, 1, 2, 6 h

## CC[n+]1c(-c2ccccc2)c2cc(N)ccc2c2ccc(N)cc21 [ethidium bromide, Ethidium bromide]
B16 Melanoma
  IC50: 11.2 µM
GES1
  IC50: 64.7 µM
[1]; intravenous, 4 weeks
  liver and spleen weights vs control: no significant difference in liver and spleen weights
[1]; [11]
  abdominal tumors vs control: significantly smaller than those in the control group
  mice with tumors completely cleared: approximately 25%
[1]; later stage, dosing group
  body weight: slight decrease in body weight
[2]
  deaths: excessive deaths in nude mice
PANC1 Pancreatic cancer
  IC50: 3.3 µM
3T3-L1
  IC50: 67.9 µM
Reh Leukemia
  IC50: 2.23 µM
[3]
  tolerability: well tolerated
[4]; [12]
  time at which mTOR was activated: 10 min
  time at which p-Erk was activated: 1 h
  time at which p-NFkB was activated: 30 min
[4]; in vitro cells (AGS, GES1, RKO), 3 days of treatment
  cleaved Caspase3 and Erk phosphorylation in vitro: significant increase in the phosphorylation levels of both cleaved Caspase3 and Erk
RKO Colorectal cancer
  IC50: 1.43 µM
[5]
  oxygen consumption, glycolysis level, glycolysis rate: significantly reduced
[6]
  oxygen consumption, glycolysis level, glycolysis rate: significantly reduced
Tumor cells
  IC50: < 10 µM
Hela Cervical cancer
  IC50: 3.35 µM
C2C12
  IC50: 85.5 µM
AGS Gastric cancer
  IC50: 0.71 µM
[7]; National Toxicology Program, 1239-45-8
  DNA mutations and carcinogenesis in cells or organisms: no evidence that ethidium bromide can induce DNA mutations and carcinogenesis
[7]; long-term treatment, Mutation Research, 174(1986) 175-178
  genetic mutations in cells: do not create genetic mutations
HepG2 Liver cancer
  IC50: 8.12 µM
[8]
  tumors in the lung tissues vs control: significantly smaller than those in the control group
[9]
  migration of tumor cells: significantly inhibit the migration
[10]
  migration of tumor cells: significantly inhibit the migration
LO2
  IC50: 50.7 µM
Normal cell line GES1
  oxygen consumption, glycolysis level, glycolysis rate: decreased only at higher concentrations such as 5 μM
Normal cells; 0.1, 0.4, 1 μg/ml, Chang, LO2, 3T3-L1
  growth inhibition / apoptosis: inhibited growth at most and cannot induce apoptosis
Normal cells; 1, 2, 5 μM, LO2, chang, GES1
  growth inhibition / apoptosis: only inhibited growth and cannot induce apoptosis
Cancer cells; 0.1, 0.4, 1 μg/ml, SK-Hep1, BEL-7404, B16
  induction of cell death: can selectively induce the death of a wide range of cancer cells
Cancer cells; 1, 2, 5 μM, SK-Hep1, 7404, AGS, RKO
  induction of cell death: can selectively induce the death of cancer cells in many different tissues
MDA-231 Breast cancer
  IC50: 5.4 µM
